Assay [1] deals with E. coli Trx (Escherichia coli, UniProt P0AA25). Put plainly: dilution binding assay of biotinylated TP-2 to immobilized Trx.
Assay [2] concerns the target Trx-gp5Δ22 interaction (Escherichia coli, UniProt P0AA25). Description: biochemical. On the set-up: species or system E. coli (Trx); bacteriophage T7 (gp5Δ22).
The target in assay [3] is Src SH3. The note with it: read-out: KD, Src SH3 and its peptide ligand; ref [23]; cited from earlier work.
For assay [4], the system named is human Src SH3 domain. Put plainly: phage ELISA, binding to human Src SH3 domain. The note with it: immobilized on polystyrene plates, O.D. 405 nm, triplicate wells.

pIC50, pKd: −log10 of the molar value. Where a SMILES comes first, the peptide text is derived from it. Bridges are numbered along the chain shown (N, C = ends).

Chain of E. coli Trx (P0AA25 whole entry): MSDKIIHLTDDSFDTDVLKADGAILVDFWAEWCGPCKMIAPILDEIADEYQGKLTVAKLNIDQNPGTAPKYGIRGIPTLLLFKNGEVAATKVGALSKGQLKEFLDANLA
Chain of Trx-gp5Δ22 interaction (P0AA25 2-109, stated change not applied): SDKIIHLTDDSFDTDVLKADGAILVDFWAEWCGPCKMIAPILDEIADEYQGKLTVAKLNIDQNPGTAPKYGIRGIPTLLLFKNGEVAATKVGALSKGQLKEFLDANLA

`CC[C@H](C)[C@H](NC(=O)[C@H](CC(C)C)NC(=O)[C@H](CCCNC(=N)N)NC(=O)[C@H](CC(=O)O)NC(=O)[C@@H]1CCCN1C(=O)[C@@H](NC(=O)[C@@H](NC(=O)[C@@H]1CSSC[C@H](NC(=O)[C@H](CC(N)=O)NC(=O)[C@@H](NC(=O)[C@H](CC(N)=O)NC(=O)[C@H](CCCNC(=N)N)NC(=O)[C@@H](N)CO)C(C)C)C(=O)N[C@@H](CC(N)=O)C(=O)N[C@@H](C)C(=O)N[C@@H](CO)C(=O)N[C@@H](C(C)C)C(=O)N1)[C@@H](C)O)[C@@H](C)CC)C(=O)N[C@H](C(=O)N[C@@H](CC(=O)O)C(=O)N[C@@H](CC(N)=O)C(=O)N1CCC[C@H]1C(=O)NCC(=O)N[C@@H](CO)C(=O)NCC(=O)N[C@@H](CO)C(N)=O)[C@@H](C)O` [TP-2] (H-SRNVNCNASVCTIPDRLITDNPGSGS-NH2; disulfide 6-11) showed a pKd in assay [1] of 5.70. Besides, in assay [1] (10 mM DTT, data not shown), the “reduction of peptide binding in the presence of DTT” value is > 50%. Also, the pIC50 in assay [2] was ~5.00.
Take “H-SSRPLPPLPGS-NH2 [Src SH3 peptide ligand]”: the pKd in assay [3] is ~5.30. For the same compound, the “binding to human Src SH3 domain” value in assay [4] is recorded as “binds to Src SH3 domain”.

(Values after article PMC4742250 (Biochimica et biophysica acta, 2008).)
